Experimental data as given in US9783536B2, “Nitrogen-containing heterocyclic compound or salt thereof” (FUJIFILM Corporation, priority 2013, dated 2017).
Counter-ions that a name gives are not always drawn. Like-named read-outs stand apart in the source and are kept apart here.

Key:
[1] = biological target: T1, human PI3Kα protein (Homo sapiens, UniProt P42336); test: PI3Kα enzyme assay (ADP-Glo); type: biochemical; settings: read-out: PI3Kα enzyme inhibitory activity
T1 construct: purchased Carna Biosciences, Inc; host or cells: baculovirus expression system
T1 sequence (P42336 whole entry): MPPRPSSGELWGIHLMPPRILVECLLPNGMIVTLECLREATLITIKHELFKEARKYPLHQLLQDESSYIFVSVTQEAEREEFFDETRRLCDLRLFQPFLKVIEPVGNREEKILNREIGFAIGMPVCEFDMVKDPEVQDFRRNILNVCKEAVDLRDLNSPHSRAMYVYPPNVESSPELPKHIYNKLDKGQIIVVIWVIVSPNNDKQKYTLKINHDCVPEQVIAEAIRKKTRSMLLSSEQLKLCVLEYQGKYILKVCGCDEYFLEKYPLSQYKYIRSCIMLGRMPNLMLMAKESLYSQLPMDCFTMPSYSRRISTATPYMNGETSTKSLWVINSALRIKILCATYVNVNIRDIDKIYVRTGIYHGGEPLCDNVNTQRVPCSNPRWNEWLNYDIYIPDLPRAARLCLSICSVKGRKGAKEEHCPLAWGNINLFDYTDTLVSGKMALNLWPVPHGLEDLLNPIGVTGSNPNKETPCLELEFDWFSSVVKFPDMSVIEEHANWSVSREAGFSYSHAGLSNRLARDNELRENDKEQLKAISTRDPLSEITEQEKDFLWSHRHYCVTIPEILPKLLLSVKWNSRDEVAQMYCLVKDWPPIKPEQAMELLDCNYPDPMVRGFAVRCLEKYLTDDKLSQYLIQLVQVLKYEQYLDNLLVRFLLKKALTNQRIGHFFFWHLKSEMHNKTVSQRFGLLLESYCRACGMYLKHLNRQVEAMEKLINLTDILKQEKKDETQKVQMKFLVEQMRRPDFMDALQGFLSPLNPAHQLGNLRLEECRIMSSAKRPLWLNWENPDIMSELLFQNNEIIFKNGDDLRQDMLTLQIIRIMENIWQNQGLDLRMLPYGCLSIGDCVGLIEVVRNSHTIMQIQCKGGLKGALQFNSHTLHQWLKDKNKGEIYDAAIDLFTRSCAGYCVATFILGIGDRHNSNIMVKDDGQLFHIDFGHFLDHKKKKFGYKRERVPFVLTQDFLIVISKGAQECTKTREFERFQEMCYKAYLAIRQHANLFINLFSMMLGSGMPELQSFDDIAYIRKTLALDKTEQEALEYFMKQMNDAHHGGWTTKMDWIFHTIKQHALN
T1 sequence (P27986 whole entry partner): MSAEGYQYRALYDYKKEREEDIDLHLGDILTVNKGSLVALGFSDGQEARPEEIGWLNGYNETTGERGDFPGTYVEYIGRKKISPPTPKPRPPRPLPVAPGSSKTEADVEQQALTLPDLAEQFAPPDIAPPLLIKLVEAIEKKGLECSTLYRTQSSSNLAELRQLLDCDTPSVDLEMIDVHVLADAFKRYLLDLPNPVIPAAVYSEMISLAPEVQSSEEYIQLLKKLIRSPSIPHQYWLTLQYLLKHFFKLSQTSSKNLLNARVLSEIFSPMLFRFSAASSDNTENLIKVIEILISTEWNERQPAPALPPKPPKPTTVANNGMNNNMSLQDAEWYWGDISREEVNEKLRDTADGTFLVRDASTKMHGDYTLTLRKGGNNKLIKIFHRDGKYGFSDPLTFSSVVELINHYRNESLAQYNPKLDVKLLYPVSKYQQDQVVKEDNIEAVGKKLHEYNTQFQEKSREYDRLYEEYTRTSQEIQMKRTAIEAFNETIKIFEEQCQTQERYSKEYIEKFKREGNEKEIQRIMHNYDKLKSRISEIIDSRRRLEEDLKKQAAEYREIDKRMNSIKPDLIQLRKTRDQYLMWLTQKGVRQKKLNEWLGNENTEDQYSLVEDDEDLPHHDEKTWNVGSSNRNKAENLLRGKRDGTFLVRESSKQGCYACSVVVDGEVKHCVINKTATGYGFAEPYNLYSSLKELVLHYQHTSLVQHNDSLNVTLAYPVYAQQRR
Summary of the method: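 Biotinylated human PI3Kα (baculovirus-expressed, 4.5 nmol/L) pre-incubated 15 min with compound in Tris-HCl pH 7.5, MgCl2, BSA; reaction 60 min at 25° C with 50 μmol/L PIP2 and 100 μmol/L ATP final. ADP quantified by ADP-Glo luminescence; IC50 calculated.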

[2] = biological target: T2, GST fusion human ERK2 protein (Homo sapiens, UniProt P28482); test: ERK2 enzyme assay (1); type: biochemical; settings: read-out: ERK2 enzyme inhibitory activity (1)
T2 construct: purchased Carna Biosciences, Inc; host or cells: E. coli expression system
T2 sequence (P28482 whole entry, the tested form may be a part): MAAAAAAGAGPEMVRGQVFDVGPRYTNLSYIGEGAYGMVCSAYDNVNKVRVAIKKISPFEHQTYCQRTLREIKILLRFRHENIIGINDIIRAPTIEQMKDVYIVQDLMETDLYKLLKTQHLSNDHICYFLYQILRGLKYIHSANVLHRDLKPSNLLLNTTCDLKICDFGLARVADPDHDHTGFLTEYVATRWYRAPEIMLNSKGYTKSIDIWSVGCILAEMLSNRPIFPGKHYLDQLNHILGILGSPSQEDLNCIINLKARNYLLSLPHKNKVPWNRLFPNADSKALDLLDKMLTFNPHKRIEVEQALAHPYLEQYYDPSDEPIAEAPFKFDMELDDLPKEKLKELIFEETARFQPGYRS
Summary of the method: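 Enzyme (2.5 nmol/L, E. coli-expressed) preincubated with compound 15 min at room temperature in HEPES/MgCl2/DTT/Brij35 buffer, pH 7.5; reaction with 4.25 μmol/L FL-Peptide 8 and 43.1 μmol/L ATP for 120 min at 25 °C. Phosphorylated peptide fraction quantified by mobility-shift separation after EDTA stop; IC50 calculated.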

[3] = 4.5 nmol/L PI3Kα, PIP2 50 μmol/L, ATP 100 μmol/L
[4] = 2.5 nmol/L ERK2, ATP 43.1 μmol/L

Compound | IC50 [1] | IC50 ([2]; ERK2 enzyme assay (1)) | IC50 [1, 3] | IC50 [2, 4]
CC(=O)N1CCC(c2cnc3ccc(Nc4nnc(C5CCCC5)s4)nc3c2)CC1 [Example 0335, 1-(4-(6-((5-Cyclopentyl-1,3,4-thiadiazol-2-yl)amino)-1,5-naphthyridin-3-yl)piperidin-1-yl)ethanone] | 10 to 50 µM | < 1 µM | – | –
CN1CCN(CCCn2cc(-c3cnc4ccc(Nc5nnc(C6CCCC6)s5)nc4c3)cn2)CC1 [Example 0197, 5-cyclopentyl-N-(7-(1-(3-(4-methylpiperazin-1-yl)propyl)-1H-pyrazol-4-yl)-1,5-naphthyridin-2-yl)-1,3,4-thiadiazole-2-amine] | – | – | < 1 µM | < 1 µM
CC(=O)OCC(C)(C)c1cnnc(Nc2ccc3ncc(-c4cnn(CCCN5CCCC5)c4)cc3n2)c1 [Example 0404, 2-Methyl-2-(6-((7-(1-(3-(pyrrolidin-1-yl)propyl)-1H-pyrazol-4-yl)-1,5-naphthyridin-2-yl)amino)pyridazin-4-yl)propyl acetate] | < 1 µM | < 1 µM | – | –
CC(C)c1cnc(Nc2ccc3ncc(-c4cnn(CCCN5CCCC5)c4)cc3n2)s1 [Example 0119] | – | – | < 1 µM | < 1 µM
c1nc2ccc(Nc3nnc(C4CCCC4)s3)nc2cc1NC1CCOC1 (stereo not shown) [Example 0319, N^2-(5-cyclopentyl-1,3,4-thiadiazol-2-yl)-N^7-(tetrahydrofuran-3-yl)-1,5-naphthyridine-2,7-diamine] | < 1 µM | < 1 µM | – | –
c1n[nH]cc1Nc1cnc2ccc(Nc3nnc(N4CCOCC4)s3)nc2c1 [Example 0225, N^2-(5-morpholino-1,3,4-thiadiazol-2-yl)-N^7-(1H-pyrazol-4-yl)-1,5-naphthyridine-2,7-diamine] | 1 to 10 µM | < 1 µM | – | –
Cc1nnc(Nc2ccc3ncc(-c4cnn(CCCN5CCCC5)c4)cc3n2)s1 [Example 0323] | < 1 µM | < 1 µM | – | –
OCCc1nnc(Nc2ccc3ncc(-c4cnn(CCCN5CCCC5)c4)cc3n2)s1 [Example 0367] | < 1 µM | < 1 µM | – | –
c1nc2ccc(Nc3nnc(C4CCCC4)s3)nc2cc1NC1CCOCC1 [Example 0312] | < 1 µM | < 1 µM | – | –
COc1cnccc1-c1ccnc2ccc(Nc3nnc(C(C)C)s3)nc12 [Example 0279] | < 1 µM | < 1 µM | – | –
Cn1cc(-c2cc3nc(Nc4nncs4)ccc3nc2N)cn1 [Example 0306, 7-(1-methyl-1H-pyrazol-4-yl)-N^2-(1,3,4-thiadiazol-2-yl)-1,5-naphthyridine-2,6-diamine] | < 1 µM | < 1 µM | – | –
CC(C)c1nnc(Nc2ccc3ncc(-c4cnn(C)c4-c4cnn(C)c4)cc3n2)s1 [Example 0476, N-(7-(1′,2-dimethyl-1′H,2H-[3,4′-bipyrazole]-4-yl)-1,5-naphthyridin-2-yl)-5-isopropyl-1,3,4-thiadiazole-2-amine] | < 1 µM | < 1 µM | – | –
COCc1csc(Nc2ccc3ncc(-c4cnn(C)c4)cc3n2)n1 [Example 0141] | – | – | 1 to 10 µM | 1 to 10 µM
CN1CCN(c2cnc3ccc(Nc4nnc(C5CCCC5)s4)nc3c2)CC1=O [Example 0054] | – | – | < 1 µM | < 1 µM
c1cncc(Nc2cnc3ccc(Nc4nnc(C5CCCC5)s4)nc3c2)c1 [Example 0207] | < 1 µM | < 1 µM | – | –
CCOC(=O)c1cnc(Nc2ccc3ncc(-c4cnn(C)c4)cc3n2)s1 [Example 0035, ethyl 2-((7-(1-methyl-1H-pyrazol-4-yl)-1,5-naphthyridin-2-yl)amino)thiazole-5-carboxylate] | – | – | < 1 µM | 1 to 10 µM
CN(c1nnc(Nc2ccc3ncc(-c4cnn(C)c4)cc3n2)s1)S(=O)(=O)c1ccccc1 [Example 0190] | – | – | 1 to 10 µM | < 1 µM
c1cnnc(Nc2cnc3ccc(Nc4nnc(C5CCCC5)s4)nc3c2)c1 [Example 0224, N^2-(5-cyclopentyl-1,3,4-thiadiazol-2-yl)-N^7-(pyridazin-3-yl)-1,5-naphthyridine-2,7-diamine] | < 1 µM | < 1 µM | – | –
Cn1cc(-c2cnc3ccc(Nc4ncc[nH]4)nc3c2)cn1 [Example 0030, N-(1H-imidazol-2-yl)-7-(1-methyl-1H-pyrazol-4-yl)-1,5-naphthyridine-2-amine] | – | – | < 1 µM | < 1 µM
c1nnc(Nc2ccc3ncc(Nc4cn[nH]c4)cc3n2)s1 [Example 0186, N^7-(1H-pyrazol-4-yl)-N^2-(1,3,4-thiadiazol-2-yl)-1,5-naphthyridine-2,7-diamine] | – | – | < 1 µM | < 1 µM
CC(C)c1nnc(Nc2ccc3nccc(-c4ccncc4)c3n2)s1 [Example 0269, 5-isopropyl-N-(8-(pyridin-4-yl)-1,5-naphthyridin-2-yl)-1,3,4-thiadiazole-2-amine] | < 1 µM | < 1 µM | – | –

Compound | IC50 [1] | IC50 ([2]; ERK2 enzyme assay (1)) | IC50 [1, 3] | IC50 [2, 4]
Cc1cnnc(Nc2ccc3ncc(-c4cn(C)nc4CO)cc3n2)c1 [Example 0397, (1-methyl-4-(6-((5-methylpyridazin-3-yl)amino)-1,5-naphthyridin-3-yl)-1H-pyrazol-3-yl)methanol] | < 1 µM | < 1 µM | – | –
c1nnc(Nc2ccc3ncc(N4CCOCC4)cc3n2)s1 [Example 0003, N-(7-morpholino-1,5-naphthyridin-2-yl)-1,3,4-thiadiazole-2-amine] | – | – | 1 to 10 µM | < 1 µM
CC(C)c1cnnc(Nc2ccc3ncc(-c4cnn(-c5ccncc5)c4)cc3n2)c1 [Example 0399, N-(5-isopropylpyridazin-3-yl)-7-(1-(pyridin-4-yl)-1H-pyrazol-4-yl)-1,5-naphthyridine-2-amine] | 1 to 10 µM | < 1 µM | – | –
CC(C)c1cnnc(Nc2ccc3ncc(N4CCOCC4)cc3n2)c1 [Example 0392, N-(5-isopropylpyridazin-3-yl)-7-morpholino-1,5-naphthyridine-2-amine] | < 1 µM | < 1 µM | – | –
COc1cc(-c2cnc3ccc(Nc4nnc(C5CCCC5)s4)nc3c2)ccc1O [Example 0202] | 10 to 50 µM | < 1 µM | – | –
CS(=O)(=O)N1CCN(c2cnc3ccc(Nc4nnc(C5CCCC5)s4)nc3c2)CC1 [Example 0053, 5-cyclopentyl-N-(7-(4-(methylsulfonyl)piperazin-1-yl)-1,5-naphthyridin-2-yl)-1,3,4-thiadiazole-2-amine hydrochloride] | – | – | 1 to 10 µM | < 1 µM
CC(C)Oc1cncc(Nc2cnc3ccc(Nc4nnc(C5CCCC5)s4)nc3c2)c1 [Example 0100] | – | – | 1 to 10 µM | < 1 µM
c1n[nH]cc1-c1cnc2ccc(Nc3nnc(C4CCCC4)s3)nc2c1 [Example 0201] | 1 to 10 µM | < 1 µM | – | –
CC(C)c1nnc(Nc2ccc3nccc(-c4cncnc4)c3n2)s1 [Example 0278, 5-isopropyl-N-(8-(pyrimidin-5-yl)-1,5-naphthyridin-2-yl)-1,3,4-thiadiazole-2-amine] | < 1 µM | < 1 µM | – | –
COc1cccc(Nc2ccnc3ccc(Nc4nnc(C(C)C)s4)nc23)c1 [Example 0012] | – | – | < 1 µM | 1 to 10 µM
CC(=O)N1CC=C(c2cnc3ccc(Nc4nnc(C5CCCC5)s4)nc3c2)CC1 [Example 0334, 1-(4-(6-((5-cyclopentyl-1,3,4-thiadiazol-2-yl)amino)-1,5-naphthyridin-3-yl)-5,6-dihydropyridine-1(2H)-yl)ethanone] | < 1 µM | < 1 µM | – | –
Cn1cc(-c2cnc3ccc(Nc4ccc(Cl)nn4)nc3c2)cn1 [Example 0152] | – | – | 1 to 10 µM | < 1 µM
c1ccc(-c2cncc(Nc3cnc4ccc(Nc5nnc(C6CCCC6)s5)nc4c3)c2)cc1 [Example 0070] | – | – | < 1 µM | < 1 µM
c1cnc2ccc(Nc3nnc(C4CCCC4)s3)nc2c1 [Example 0043, 5-cyclopentyl-N-(1,5-naphthyridin-2-yl)-1,3,4-thiadiazole-2-amine hydrochloride] | – | – | 1 to 10 µM | < 1 µM
Cn1cc(-c2cnc3ccc(Nc4nnc(NS(=O)(=O)c5ccccc5)s4)nc3c2)cn1 [Example 0177, N-(5-((7-(1-methyl-1H-pyrazol-4-yl)-1,5-naphthyridin-2-yl)amino)-1,3,4-thiadiazol-2-yl)benzene sulfonamide hydrochloride] | – | – | < 1 µM | < 1 µM
CC(C)c1nnc(Nc2ccc3nccc(Nc4ccncn4)c3n2)s1 [Example 0007] | – | – | < 1 µM | < 1 µM
O=S(=O)(Nc1ccccc1)c1nnc(Nc2ccc3ncc(-c4cnn(CCN5CCOCC5)c4)cc3n2)s1 [Example 0188, 5-((7-(1-(2-morpholinoethyl)-1H-pyrazol-4-yl)-1,5-naphthyridin-2-yl)amino)-N-phenyl-1,3,4-thiadiazole-2-sulfonamide sodium salt] | – | – | < 1 µM | < 1 µM
COCCN(C)c1cnc2ccc(Nc3nnc(C4CCCC4)s3)nc2c1 [Example 0309] | 1 to 10 µM | < 1 µM | – | –
c1nc2ccc(Nc3nnc(CN4CCOCC4)s3)nc2cc1-c1cnn(CCCN2CCCC2)c1 [Example 0255, 5-(morpholinomethyl)-N-(7-(1-(3-(pyrrolidin-1-yl)propyl)-1H-pyrazol-4-yl)-1,5-naphthyridin-2-yl)-1,3,4-thiadiazole-2-amine] | 1 to 10 µM | < 1 µM | – | –
Cn1cc(Nc2cnc3ccc(Nc4nnc(C5CCCC5)s4)nc3c2)cn1 [Example 0194] | – | – | 1 to 10 µM | < 1 µM
